Test results published in PubChem BioAssay AID588641 (Sanford-Burnham Center for Chemical Genomics, 2011).
The source made the active and inactive calls. No rule for the calls is given here.

Molecular target: alkaline phosphatase, placental type (human)
Assay: inhibitors of placental alkaline phosphatase – biochemical, human PLAP isozyme, set 2, selectivity assay for mouse IAP inhibitor project, SAR follow-up (AID 588641)
Details: purified human placental alkaline phosphatase, enzyme activity

| IC50 | Structure (SMILES) |
| --- | --- |
| > 100 µM (inactive) | CN(C)c1ccc(CNC(=O)C2CCCN(S(=O)(=O)c3ccc4[nH]c(=O)oc4c3)C2)cc1 (configuration not stated) |
| > 100 µM (inactive) | O=C(N/N=C/c1ccccc1F)c1ccc(O)cc1 |
| > 100 µM (inactive) | O=C(CCCNS(=O)(=O)c1ccc2[nH]c(=O)oc2c1)NCCc1ccc(O)cc1 |
| > 100 µM (inactive) | COc1ccc(NS(=O)(=O)c2ccc3[nH]c(=O)oc3c2)cc1OC |
| > 100 µM (inactive) | O=C(CNS(=O)(=O)c1ccc2[nH]c(=O)oc2c1)NCCc1ccc2c(c1)OCO2 |
| > 100 µM (inactive) | COc1ccc(C(=O)N/N=C/c2c(F)cccc2Cl)cc1OC |
| > 100 µM (inactive) | CC(C)c1ccc(NC(=O)C2CCCN(S(=O)(=O)c3ccc4c(c3)oc(=O)n4C)C2)cc1 (configuration not stated) |
| > 100 µM (inactive) | CC(C)c1ccc(NC(=O)CCNS(=O)(=O)c2ccc3c(c2)oc(=O)n3C)cc1 |
| > 100 µM (inactive) | Cc1ccc(CNC(=O)CCNS(=O)(=O)c2ccc3[nH]c(=O)oc3c2)cc1 |
| > 100 µM (inactive) | COc1ccccc1CNC(=O)CCCNS(=O)(=O)c1ccc2[nH]c(=O)oc2c1 |
| > 100 µM (inactive) | COc1ccc(NC(=O)CCNS(=O)(=O)c2ccc3[nH]c(=O)oc3c2)cc1OC |
| > 100 µM (inactive) | O=C(CCNS(=O)(=O)c1ccc2[nH]c(=O)oc2c1)NCc1ccccc1F |
| > 100 µM (inactive) | O=C(CCS(=O)(=O)Nc1ccc2[nH]c(=O)oc2c1)NCc1cccc(Cl)c1 |
| > 100 µM (inactive) | Cc1ccc(NC(=O)CCNS(=O)(=O)c2ccc3c(c2)oc(=O)n3C)cc1 |
| > 100 µM (inactive) | Cc1ccc(C)c(NC(=O)CCNS(=O)(=O)c2ccc3c(c2)CCC3)c1 |
| > 100 µM (inactive) | COc1ccc(CCNC(=O)CCCNS(=O)(=O)c2ccc3[nH]c(=O)oc3c2)cc1 |
| > 100 µM (inactive) | O=C(CCNS(=O)(=O)c1ccc2[nH]c(=O)oc2c1)NCc1ccc(C(F)(F)F)cc1 |
